In patent US8557300B2 (priority 2005, dated 2013):
Read-outs that look alike come from different tables or passages of the source.

How the values were obtained:
[1] = system: FRD1 in mouse lungs; conditions: FRD1-infected mice, daily 15 mM NO2^− pH 6.5 for 16 days
[2] = system: mucoid strain FRD1; conditions: FRD1, CF ultrasupernatants pH 6.24, 15 mM NO2^−
Procedure: CFU are determined (n=3) and plotted as the X±SEM vs. time.
Purulent secretions are harvested from the airways of CF lungs which physicians remove at the time of lung transplantation.

[3] = system: FRD1 and FRD1/pmucA in CD1 mouse airways
[4] = system: mucoid FRD1 and nonmucoid FRD1/pmucA in mouse lungs
Procedure: CD1 mice are infected with FRD1 or FRD1/pmucA.
CD1 mice are infected with ˜10^6 FRD1 or FRD1/pmucA entrapped in agar beads intratracheally. […] On the fifth day, the mice are sacrificed and the viable bacteria from the lung homogenates are enumerated.
The efficacy of HNO2 to kill strain FRD1 in a PA chronic lung infection model is then determined.

[5] = system: sodAsodB mutant of strain PAO1; conditions: aerobic conditions, LB pH 6.5, 15 mM NO2^−
Procedure: CFU are measured daily and plotted in logarithmic scale. For aerobic samples, strains are grown with vigorous shaking (300 rpm).

[6] = system: mucoid FRD1 and nonmucoid FRD1/pmucA; conditions: 15 mM NO2^−, pH 6.5, anaerobic, 5 days
Procedure: The black bars indicate non-mucoid FRD1/pmucA and the gray bars indicate mucoid FRD1.
(§1) The PA strains used in this study include laboratory strains PAO1 (5), CF isolate FRD1 (6), other sputum isolates from CF patients, and sixteen mucoid isolates. Complementation of the mucA mutant allele of strain FRD1 is achieved by transformation with ptacmucA. Aerobic starter cultures are grown in L-broth (10 g tryptone, 5 g NaCl and 5 g yeast extract, per liter) at 37° C. […] To support anaerobic respiration, KNO3 and/or NaNO2 are added to the medium. The pH of the medium is adjusted with 100 mM sodium phosphate (for pH 6.5) or 100 mM sodium acetate (for pH 5.5). To enumerate viable cells in cultures, colony forming units (CFU) are determined.

[7] = system: PA mucA, mucB, mucD, algW, algD, algT(U) mutant strains and clinical isolates
Procedure: Other than mucA, the aforementioned genes are the only reported loci that, when inactivated, allow for mucoid conversion in PA (25-27).
as §1

[8] = system: mucoid FRD1 and nonmucoid FRD1/pmucA; conditions: pH 6.5/15 mM NO2^− versus pH 5.5/[…] NO2^−
[9] = system: human CF airway epithelium; conditions: up to 20 times the dose required to kill mucoid mucA mutant PA, 2 μl apical, pH 6.5, 24 hr
[10] = system: Staphylococcus aureus; conditions: slightly acidified
From the text: The current last resort for treatment against these antibiotic resistant strains is with vancomycin.

[11] = system: PA strains isolated from 5 different young CF patients; conditions: 15 mM NO2^−
Procedure: as §1

[12] = system: mucoid FRD1
Procedure: as §1

[13] = apical, cultured CF airway epithelia; preliminary studies
Procedure: (§2) For experiments measuring transepithelial water flux, the primary cultures of airway epithelia are cultured in a specially humidified incubator, to prevent evaporative water loss from the culture surface. […] BD concentration is measured optically and IL-8 concentrations in basolateral media are measured using commercially available antibody pairs (R&D Systems, Minneapolis, Minn.) according to the manufacturer's instructions. […] At various time points, aliquots of apical liquid are aspirated and stored at −20° C.

[14] = system: primary cultures of CF airway epithelia; conditions: 15 mM NO2^−, 24 hr
Procedure: as §2

[15] = system: CF airway epithelial cultures; conditions: 15 mM NO2^−, 24 hr
Procedure: as §2

[16] = system: nor CB mutant of FRD1; conditions: pH 6.5
[17] = system: mucoid CF clinical isolates of PA
Procedure: (§3) The CFU in the inoculum versus that after a 4 day anaerobic incubation are determined.
as §1

[18] = system: anaerobic biofilms of FRD1 and FRD1/pmucA
Procedure: For the confocal laser microscopic analysis of anaerobic FRD1 biofilms, live cells are stained with syto-9, and dead cells are stained with propidium iodide.
An 8-chambered coverslip system (Lab-Tek Inc., Campbell, Calif.) is used for biofilm architecture and viability experiments. […] Bacterial viability staining and image acquisition are accomplished as described previously by Sparkman et al.
Anaerobic biofilms of strains FRD1 and FRD1/pmucA are grown for 1 day in media containing NO3^−, which supports anaerobic respiration.

[19] = system: FRD1 and FRD1/pmucA
Procedure: The FRD1 and FRD1/pmucA are seeded on LB agar and buffered at the indicated pH.
Plates are incubated for 2 days under anaerobic conditions.

[20] = system: nonmucoid PAO1, mucoid FRD1, nonmucoid FRD1/pmucA; conditions: pH 6.5, anaerobic
Procedure: The colony forming units (CFU) are enumerated each day and plotted.
Based upon the slightly acidic pH measurements of segmental and subsegmental bronchi from CF transplant patients, discussed above, well-characterized P. aeruginosa strains are grown at pH 6.5 under strict anaerobic conditions.
as §1

[21] = system: CF airway epithelial cultures
Procedure: Transepithelial short circuit current (Isc in μA/Cm^2) is measured to monitor any change in bioelectric properties.
A primary culture of human airway epithelial cells is performed. […] LDH is measured using a commercially available spectrophotometric assay kit (Biovision Research Products, Mountain View, Calif.) according to the manufacturer's instructions. Then, the bioelectric properties of cultured airway epithelial cells are analyzed.

[22] = system: PA sputum isolates CF-1 to CF-5; conditions: CF-1 to CF-4, 15 mM NO2^−, pH 6.5, anaerobic, 1 day
From the text: The effect of HNO2 on the killing of sputum isolates from CF patients is also monitored.

[23] = system: FRD1 and FRD1/pmucA; assay: NO gas exposure of bacterial suspension (FIG. 10); format: cell-based, Pseudomonas aeruginosa; conditions: 380 nM solution concentration of NO, LB pH 6.5, 24 hr anaerobic
Procedure: A NO gas at 333 ppm is balanced with pure argon and continuously bubbled for 24 hr anaerobically.
Nitric oxide (NO) gas (200 ppm, 0.4 μM) balanced with Ar is anaerobically delivered to a water-jacketed chamber in which ˜10^8 bacteria/ml are suspended. […] Gas flow is constantly maintained at 3 ml/min. Pure Ar gas is used as a control.

[24] = system: mucoid CF clinical isolates of PA; format: cell-based, Pseudomonas aeruginosa; conditions: isolates marked by black arrows in FIG. 6
Procedure: as §3

[25] = system: mucoid FRD1; assay: Protection of mucoid FRD1 from acidified NO2^− by NO scavengers (FIG. 9); format: cell-based, Pseudomonas aeruginosa; conditions: millimolar concentrations (5 mM); LB pH 6.5, 15 mM NO2^−
From the text: Line 3 is the FRD1 control bacteria alone.

O=NO [HNO2, nitrous acid]
bacteria in lung after long-term treatment [1]: no bacteria detected | speed of killing compared with L-broth [2]: killed faster | competitive index ([3]; complemented strain FRD1/pmucA, 6 days): ~1.0 | competitive index ([3]; {}): ~0.2 | HNO2 concentration (pH 6.5/15 mM NO2^− and pH 5.5/[…] NO2^−): ~10 µM | HNO2 concentration (pH 6.5 and 15 mM NO2^−): 10.62 µM | decrease of mucoid FRD1 in lung ([4]; pH 5.5): > 3 logs | decrease of mucoid FRD1 in lung ([4]; pH 6.5, 15 mM NO2^− intranasal): > 2 logs | decrease of nonmucoid FRD1/pmucA in lung ([4]; pH 6.5 and pH 5.5): but not nonmucoid FRD1/pmucA, are decreased | sensitivity of sodAsodB mutant [5]: not sensitive

O=NO [NO2^−, nitrite]
viability of nonmucoid FRD1/pmucA after mixed incubation [6]: maintains viability | CFU of mucoid FRD1 after mixed incubation ([6]; three bacterial ratios): < 10^3 CFU/ml | LD50 for sensitive strains compared with FRD1 [7]: almost identical to that for FRD1 | sensitivity of FRD1 derived nonmucoid mutants ΔalgD and ΔalgT(U) [7]: equally sensitive | sensitivity of PDO300 (PAO1 mucA22) [7]: sensitive | sensitivity of mucB, mucD and algW mutants of PAO1 [7]: not sensitive | killing of mucoid bacteria at identical HNO2 concentrations [8]: equal killing | cytotoxicity by lactate dehydrogenase release [9]: no cytotoxicity | susceptibility of Staphylococcus aureus incl. MRSA [10]: exhibited susceptibility | killing of mucoid variants of patients A, B, C and D [11]: 1.9-3.1 logs | LD50 ([12]; mucoid FRD1, pH 6.5, 24 hr anaerobic): ~3 mM | bacteria killed ([12]; pH 6.5): Ninety to ninety-five | killing on long-term exposure ([12]; pH 6.5): all organisms are killed | half-life of NO2^− on CF airway surfaces [13]: ~5 h | immune response as release of IL-8 [14]: does not cause activation of an immune response | transepithelial water flux (Jv) [15]: does not alter transepithelial water flux | sensitivity of norCB mutant relative to FRD1 [16]: ~10 fold | mucA mutant mucoid isolates showing increased susceptibility ([17]; 15 mM NO2^−, pH 6.5, anaerobic): 78 out of 82 | number of mucoid isolates with wild-type mucA allele resistant, out of 12 ([17]; acidified NO2^−): 8 | sensitivity of 4 antibiotic-resistant strains ([17]; anaerobic treatment with acidified NO2^−): still sensitive | share of isolates killed by more than 2 logs ([17]; mucA mutant mucoid isolates, 15 mM NO2^−, pH 6.5, anaerobic): 74% | biofilm response ([18]; FRD1/pmucA biofilm, acidified NO2^−): resistance to acidified NO2^− is clearly evident | death of biofilm organisms ([18]; FRD1 biofilm, 15 mM NO2^−, pH 6.5, 2 days): nearly complete death of biofilm organisms | biofilm structure and cell viability relative to control ([18]; FRD1 biofilm, 15 mM NO2^−, pH 7.5, 2 days): no difference in biofilm structure and cell viability | killing versus pH ([19]; FRD1, filter disc 10 μl of 1 M NO2^−, anaerobic 48 hours): more effectively at lower pH | killing versus pH ([19]; FRD1/pmucA, pH values between 6.0 and 7.5): little or no killing | viability of nonmucoid strains PAO1 and FRD1/pmucA ([20]; 15 mM NO2^−, 4 day incubation): remained viable | rate of killing ([20]; mucoid FRD1, 15 mM NO2^−): 90 % per day | in vitro sensitivity of organisms recovered from mouse airways after exposure ([4]; mouse, in vivo): still sensitive | amiloride-sensitive Isc ([21]; 15 mM NO2^− treated (control 15.4±1.4, p=0.92)): 15.7±1.7 μA/cm^2 | UTP-activated Isc ([21]; 15 mM NO2^− treated (control 17.7±3.0, p=0.92)): 18.1±3.3 μA/cm^2 | basal transepithelial short circuit current (Isc) ([21]; NO2^− at varying concentrations): not affected | viability of mucoid mucA mutant sputum isolates [22]: a sharp decrease in viability

O=[N+]([O-])O [NO3^−, nitrate, reference compound]
viability patterns of FRD1, PAO1 and FRD1/pmucA ([20]; 15 mM NO3^−): no difference in viability patterns is observed

[N]=O [NO, nitric oxide]
killing of FRD1 by NO/Ar gas mixture [23]: is killed

NCC[C@H](O)C(=O)N[C@@H]1C[C@H](N)[C@@H](O[C@H]2O[C@H](CN)[C@@H](O)[C@H](O)[C@H]2O)[C@H](O)[C@H]1O[C@H]1O[C@H](CO)[C@@H](O)[C@H](N)[C@H]1O [amikacin]
resistance of 4 clinical isolates [24]: highly resistant

CC1(C)N([O])C(c2ccc(C(=O)O)cc2)=[N+]([O-])C1(C)C [carboxy-PTIO]
protection of FRD1 from killing by acidified NO2^− [25]: strong protective effect

CC(C)(O/N=C(\C(=O)N[C@@H]1C(=O)N2C(C(=O)[O-])=C(C[n+]3ccccc3)CS[C@H]12)c1csc(N)n1)C(=O)O [ceftazidime]
resistance of 4 clinical isolates [24]: highly resistant

NC[C@H]1O[C@H](O[C@H]2[C@H](O)[C@@H](O[C@H]3O[C@H](CO)[C@@H](O)[C@H](N)[C@H]3O)[C@H](N)C[C@@H]2N)[C@H](N)C[C@@H]1O [tobramycin]
resistance of 4 clinical isolates [24]: highly resistant

gentamycin
resistance of 4 clinical isolates [24]: highly resistant
